Common to all, as to type: functional
Test [1] relates to Rattus norvegicus. Briefly: Anti-inflammatory activity in Rattus norvegicus Wistar (rat) assessed as inhibition of carrageenan-induced paw edema at 10 mg/kg, ip administered 30 min post carrageenan-challenge measured after 3 hr relative to control. The conditions noted are these: route intraperitoneal. For orientation: Carrageenan injected into the paw causes an acute inflammation.

The subject of test [2] is Rattus norvegicus. Kind of test: Anti-inflammatory activity in Rattus norvegicus Wistar (rat) assessed as inhibition of carrageenan-induced paw edema at 20 mg/kg, ip administered 30 min post carrageenan-challenge measured after 3 hr relative to control. To be noted: route intraperitoneal.
Test [3] deals with Mus musculus. Briefly: Anticonvulsant activity in Mus musculus albino (mouse) assessed as time of onset of PTZ-induced clonic convulsion at 25 mg/kg, po administered 30 min prior to PTZ-challenge (reference value: 61 secs).
In test [4] the test system is Mus musculus. Kind of test: Anticonvulsant activity in Mus musculus albino (mouse) assessed as protection against PTZ-induced clonic convulsion at 25 mg/kg, po administered 30 min prior to PTZ-challenge relative to control.

SMILES strings stand for the structures.

The inhibition in vivo is the percentage by which the read-out fell short of the control.

Turning to `O=C(O)Cc1ccccc1Nc1c(Cl)cccc1Cl` [DICLOFENAC], the inhibition in vivo at 10 mg/kg in the test with Rattus norvegicus [1] came out at 80.4%.
On to `Clc1ccc(/C=N/C2Oc3ccccc3CC2c2noc(-c3ccc(Cl)cc3)n2)cc1` (stereo not given), for which the inhibition in vivo at 20 mg/kg in the test with Rattus norvegicus [2] was found to be 26.8%. The Time in the test with Mus musculus [3] is reported as 218 s. For the same compound, in the test with Mus musculus [4], the Activity was determined as 100%.
As to `C(=N\C1Oc2ccccc2CC1c1noc(-c2nccs2)n1)/c1nccs1` (stereo not given), in the test with Rattus norvegicus [2], the inhibition in vivo at 20 mg/kg was found to be 17.3%. The Time in the test with Mus musculus [3] is given as 201 s. The Activity in the test with Mus musculus [4] turned out to be 100%.
The matching figures for `O=[N+]([O-])c1cccc(/C=N/C2Oc3ccccc3CC2c2noc(-c3cccc([N+](=O)[O-])c3)n2)c1` (stereo not given): 40.9%, 60 s and 100%.
The matching figures for `Clc1ccccc1/C=N/C1Oc2ccccc2CC1c1noc(-c2ccccc2Cl)n1` (stereo not given): 37%, 226 s and 100%.
The matching figures for `COc1cc(/C=N/C2Oc3ccccc3CC2c2noc(-c3ccc(O)c(OC)c3)n2)ccc1O` (stereo not given): 42.5%, 80 s and 66.6%.
On to `Oc1ccccc1/C=N/C1Oc2ccccc2CC1c1noc(-c2ccccc2O)n1` (stereo not given), for which the inhibition in vivo at 20 mg/kg in the test with Rattus norvegicus [2] is 27.5%. Further, the Time in the test on Mus musculus [3] turned out to be 325 s. For the same compound, in the test with Mus musculus [4], the Activity turned out to be 100%.
Turning to `C(/C=C/c1ccccc1)=N/C1Oc2ccccc2CC1c1noc(/C=C/c2ccccc2)n1` (stereo not given), the inhibition in vivo at 20 mg/kg with Rattus norvegicus [2] was found to be 23.6%.
On to `Brc1ccc(/C=N/C2Oc3ccccc3CC2c2noc(-c3ccc(Br)cc3)n2)cc1` (stereo not given), for which, in the test with Mus musculus [3], the Time was 104 s. In addition, the Activity in the test with Mus musculus [4] was 100%.
For the compound `COc1ccc(/C=N/C2Oc3ccccc3CC2c2noc(-c3ccc(OC)c(OC)c3)n2)cc1OC` (stereo not given), the inhibition in vivo at 20 mg/kg in the test with Rattus norvegicus [2] was found to be 31.5%. For the same compound, the Time in the test with Mus musculus [3] was determined as 158 s. Besides, the Activity in the test with Mus musculus [4] was determined as 100%.
Consider `Fc1ccc(/C=N/C2Oc3ccccc3CC2c2noc(-c3ccc(F)cc3)n2)cc1` (stereo not given), for which the Time in the test on Mus musculus [3] came out at 101 s. Further, the Activity with Mus musculus [4] is reported as 100%.
The matching figures for `Fc1ccc(Br)cc1/C=N/C1Oc2ccccc2CC1c1noc(-c2cc(Br)ccc2F)n1` (stereo not given): 128 s and 66.6%.
As for `Fc1ccc(/C=N/C2Oc3ccccc3CC2c2noc(-c3ccc(F)c(Oc4ccccc4)c3)n2)cc1Oc1ccccc1` (stereo not given), the inhibition in vivo at 20 mg/kg in the test with Rattus norvegicus [2] was determined as 37%.

The record behind these values is ChEMBL document CHEMBL3045145, “Synthesis, characterization and their anticonvulsant, anti-inflammatory studies of some novel chromeno oxadiazoles” (2013).
